# Test results as given in the NIST ThermoML archive (doi:10.1016/j.jct.2005.05.008).
# Numbers after ± are expanded uncertainties.
# Assay: an = ratio of the nth substance listed, in mol/kg
# Settings: 101 kPa, Liquid, Vibrating tube method
compound,measurement,setting,value
C[N+](C)(C)C.[O-][Cl+3]([O-])([O-])[O-] [tetramethylammonium perchlorate] + CN(C)C=O,mass density,"283.15 K, a1 = 0.01523",958.937 ± 0.27 kg/m3
same,mass density,"283.15 K, a1 = 0.01902",959.151 ± 0.27 kg/m3
same,mass density,"283.15 K, a1 = 0.02912",959.718 ± 0.27 kg/m3
same,mass density,"283.15 K, a1 = 0.03309",959.941 ± 0.27 kg/m3
same,mass density,"283.15 K, a1 = 0.03853",960.244 ± 0.27 kg/m3
same,mass density,"283.15 K, a1 = 0.04774",960.757 ± 0.27 kg/m3
same,mass density,"283.15 K, a1 = 0.05313",961.055 ± 0.27 kg/m3
same,mass density,"283.15 K, a1 = 0.0674",961.841 ± 0.27 kg/m3
same,mass density,"283.15 K, a1 = 0.08195",962.642 ± 0.27 kg/m3
same,mass density,"283.15 K, a1 = 0.09648",963.443 ± 0.27 kg/m3
same,mass density,"293.15 K, a1 = 0.01523",949.438 ± 0.27 kg/m3
same,mass density,"293.15 K, a1 = 0.01902",949.656 ± 0.27 kg/m3
same,mass density,"293.15 K, a1 = 0.02912",950.233 ± 0.27 kg/m3
same,mass density,"293.15 K, a1 = 0.03309",950.46 ± 0.27 kg/m3
same,mass density,"293.15 K, a1 = 0.03853",950.768 ± 0.27 kg/m3
same,mass density,"293.15 K, a1 = 0.04774",951.288 ± 0.27 kg/m3
same,mass density,"293.15 K, a1 = 0.05313",951.59 ± 0.27 kg/m3
same,mass density,"293.15 K, a1 = 0.0674",952.388 ± 0.27 kg/m3
same,mass density,"293.15 K, a1 = 0.08195",953.2 ± 0.27 kg/m3
same,mass density,"293.15 K, a1 = 0.09648",954.007 ± 0.27 kg/m3
same,mass density,"298.15 K, a1 = 0.01523",944.682 ± 0.27 kg/m3
same,mass density,"298.15 K, a1 = 0.01902",944.901 ± 0.27 kg/m3
same,mass density,"298.15 K, a1 = 0.02912",945.481 ± 0.27 kg/m3
same,mass density,"298.15 K, a1 = 0.03309",945.71 ± 0.27 kg/m3
same,mass density,"298.15 K, a1 = 0.03853",946.019 ± 0.27 kg/m3
same,mass density,"298.15 K, a1 = 0.04774",946.545 ± 0.27 kg/m3
same,mass density,"298.15 K, a1 = 0.05313",946.848 ± 0.27 kg/m3
same,mass density,"298.15 K, a1 = 0.0674",947.652 ± 0.27 kg/m3
same,mass density,"298.15 K, a1 = 0.08195",948.469 ± 0.27 kg/m3
same,mass density,"298.15 K, a1 = 0.09648",949.284 ± 0.27 kg/m3
same,mass density,"303.15 K, a1 = 0.01523",939.914 ± 0.27 kg/m3
same,mass density,"303.15 K, a1 = 0.01902",940.135 ± 0.27 kg/m3
same,mass density,"303.15 K, a1 = 0.02912",940.72 ± 0.27 kg/m3
same,mass density,"303.15 K, a1 = 0.03309",940.951 ± 0.27 kg/m3
same,mass density,"303.15 K, a1 = 0.03853",941.262 ± 0.27 kg/m3
same,mass density,"303.15 K, a1 = 0.04774",941.792 ± 0.27 kg/m3
same,mass density,"303.15 K, a1 = 0.05313",942.097 ± 0.27 kg/m3
same,mass density,"303.15 K, a1 = 0.0674",942.907 ± 0.27 kg/m3
same,mass density,"303.15 K, a1 = 0.08195",943.731 ± 0.27 kg/m3
same,mass density,"303.15 K, a1 = 0.09648",944.551 ± 0.27 kg/m3
same,mass density,"313.15 K, a1 = 0.01523",930.347 ± 0.26 kg/m3
same,mass density,"313.15 K, a1 = 0.01902",930.572 ± 0.26 kg/m3
same,mass density,"313.15 K, a1 = 0.02912",931.168 ± 0.26 kg/m3
same,mass density,"313.15 K, a1 = 0.03309",931.402 ± 0.26 kg/m3
same,mass density,"313.15 K, a1 = 0.03853",931.719 ± 0.26 kg/m3
same,mass density,"313.15 K, a1 = 0.04774",932.257 ± 0.26 kg/m3
same,mass density,"313.15 K, a1 = 0.05313",932.568 ± 0.26 kg/m3
same,mass density,"313.15 K, a1 = 0.0674",933.392 ± 0.26 kg/m3
same,mass density,"313.15 K, a1 = 0.08195",934.229 ± 0.26 kg/m3
same,mass density,"313.15 K, a1 = 0.09648",935.06 ± 0.27 kg/m3
same,mass density,"323.15 K, a1 = 0.01523",920.732 ± 0.26 kg/m3
same,mass density,"323.15 K, a1 = 0.01902",920.962 ± 0.26 kg/m3
same,mass density,"323.15 K, a1 = 0.02912",921.569 ± 0.26 kg/m3
same,mass density,"323.15 K, a1 = 0.03309",921.807 ± 0.26 kg/m3
same,mass density,"323.15 K, a1 = 0.03853",922.13 ± 0.26 kg/m3
same,mass density,"323.15 K, a1 = 0.04774",922.676 ± 0.26 kg/m3
same,mass density,"323.15 K, a1 = 0.05313",922.995 ± 0.26 kg/m3
same,mass density,"323.15 K, a1 = 0.0674",923.831 ± 0.26 kg/m3
same,mass density,"323.15 K, a1 = 0.08195",924.679 ± 0.26 kg/m3
same,mass density,"323.15 K, a1 = 0.09648",925.524 ± 0.26 kg/m3
same,mass density,"333.15 K, a1 = 0.01523",911.066 ± 0.26 kg/m3
same,mass density,"333.15 K, a1 = 0.01902",911.299 ± 0.26 kg/m3
same,mass density,"333.15 K, a1 = 0.02912",911.916 ± 0.26 kg/m3
same,mass density,"333.15 K, a1 = 0.03309",912.157 ± 0.26 kg/m3
same,mass density,"333.15 K, a1 = 0.03853",912.486 ± 0.26 kg/m3
same,mass density,"333.15 K, a1 = 0.04774",913.042 ± 0.26 kg/m3
same,mass density,"333.15 K, a1 = 0.05313",913.365 ± 0.26 kg/m3
same,mass density,"333.15 K, a1 = 0.0674",914.216 ± 0.26 kg/m3
same,mass density,"333.15 K, a1 = 0.08195",915.082 ± 0.26 kg/m3
same,mass density,"333.15 K, a1 = 0.09648",915.939 ± 0.26 kg/m3
